We go through 15 compounds from ChEMBL document CHEMBL1123782, “6-Alkoxy-N,N-disubstituted-2-pyridinamines as anticonvulsant agents” (1987).

As a reminder, the ED50 is the midpoint of the dose-response relation. A low value points to an effect at a small dose.

Common to all, as to type: functional
For experiment [1], the system named is Mus musculus. Description: Anticonvulsant activity expressed as minimum ataxic dose (MAD) at which mice fell off inverted screen at 30 min post administration.
Experiment [2] concerns Mus musculus. Kind of experiment: Anticonvulsant activity expressed as minimum effective dose (MED) against tonic extension produced by maximal electroshock (MES) at 30 min post administration in mice. Conditions: 0.5 h, read-out: MED.
The test system of experiment [3] is Mus musculus. Description: Anticonvulsant activity was determined in mouse (administered intraperitoneally) tested for 0.5 hours using maximal electroshock test. Conditions: ip. (In the maximal electroshock model the usual endpoint is tonic extension of the hind limbs.)
Experiment [4] has as its system Mus musculus. Kind of experiment: Anticonvulsant activity was determined in mouse (administered intraperitoneally) for 0.5 hours using rotarod ataxia test (ADD program). To be noted: ip. (In general: Falling from the rotarod earlier than controls is read as motor impairment.)
Experiment [5] concerns Mus musculus. Kind of experiment: Anticonvulsant activity was determined in mouse (administered perorally) tested for 1 hour using maximal electroshock test. Conditions: po.
For experiment [6], the system named is Mus musculus. Kind of experiment: Anticonvulsant activity was determined in mouse (administered intraperitoneally) tested for 0.5 hours using rotarod ataxia test (ADD program). Conditions: ip.
In experiment [7] the test system is Rattus norvegicus. Description: Anticonvulsant activity was determined in rat (administered perorally) tested for 4 hours using ataxia test. Conditions: po.
The test system of experiment [8] is Mus musculus. Description: Anticonvulsant activity was determined in mouse (administered intraperitoneally) for 0.5 hours using inverted wire mesh ataxia test. Conditions: ip.
Experiment [9] deals with Mus musculus. Kind of experiment: Anticonvulsant activity was determined in mouse (administered intraperitoneally) tested for 0.5 hours using inverted wire mesh ataxia test. Conditions: ip.
Experiment [10] has as its system Mus musculus. Kind of experiment: Anticonvulsant activity was determined in mouse (administered intraperitoneally) tested for 0.5 hours using maximal electroshock test (ADD program). To be noted: ip.
In experiment [11] the test system is Mus musculus. Kind of experiment: Anticonvulsant activity was determined in mouse (administered intraperitoneally) for 0.5 hours using maximal electroshock test (ADD program). Conditions: ip.
Experiment [12] has as its system Mus musculus. Kind of experiment: Anticonvulsant activity was determined in mouse (administered perorally) for 0.5 hours using maximal electroshock test (ADD) program. Conditions: po.
For experiment [13], the system named is Mus musculus. Description: Anticonvulsant activity was determined in mouse (administered perorally) tested for 0.5 hours using maximal electroshock test (ADD program). Conditions: po.
In experiment [14] the test system is Mus musculus. Kind of experiment: Anticonvulsant activity was determined in mouse (administered intraperitoneally) for 0.5 hours using maximal electroshock test. To be noted: ip.
For experiment [15], the system named is Rattus norvegicus. Kind of experiment: Anticonvulsant activity was determined in rat (administered perorally) tested for 0.5 hours using maximal electroshock test. To be noted: po.
Experiment [16] deals with Mus musculus. Kind of experiment: Anticonvulsant activity was determined in mouse (administered perorally) tested for 1 hour using rotarod ataxia test (ADD program). Conditions: po.
For experiment [17], the system named is Mus musculus. Description: Anticonvulsant activity was determined in mouse (administered perorally) tested for 0.5 hours using inverted wire mesh ataxia test. To be noted: po.
In experiment [18] the test system is Mus musculus. Description: Anticonvulsant activity was determined in mouse (administered intraperitoneally) tested for 2.0 hours using maximal electroshock test. To be noted: ip.
Experiment [19] concerns Mus musculus. Kind of experiment: Anticonvulsant activity was determined in mouse (administered perorally) tested for 2.0 hours using maximal electric shock test (ADD program). Conditions: po.
Experiment [20] has as its system Mus musculus. Description: Anticonvulsant activity was determined in mouse (administered intraperitoneally) tested for 2.0 hours using maximal electroshock test (ADD program). Conditions: ip.
For experiment [21], the system named is Mus musculus. Description: Anticonvulsant activity was determined in mouse (administered intraperitoneally) tested for 2.0 hours using rotarod ataxia test (ADD program). To be noted: ip.
Experiment [22] concerns Mus musculus. Description: Anticonvulsant activity was determined in mouse (administered perorally) tested for 2.0 hours using maximal electroshock test. Conditions: po.
Experiment [23] has as its system Mus musculus. Description: Anticonvulsant activity was determined in mouse administered perorally tested for 2.0 hours using maximal electric shock test. Conditions: po.
Experiment [24] relates to Mus musculus. Kind of experiment: Anticonvulsant activity was determined in mouse (administered perorally) tested for 2.0 hours using inverted wire mesh ataxia test. To be noted: po.
The subject of experiment [25] is Mus musculus. Kind of experiment: Anticonvulsant activity was determined in mouse (administered intraperitoneally) tested for 2.0 hours using maximal electric shock test (ADD program). To be noted: ip.
Experiment [26] concerns Mus musculus. Kind of experiment: Anticonvulsant activity was determined in mouse (administered perorally) tested for 2.0 hours using rotarod ataxia test (ADD program). To be noted: po.
Experiment [27] concerns Mus musculus. Description: Anticonvulsant activity was determined in mouse (administered intraperitoneally) tested for 2.0 hours using inverted wire mesh ataxia test. To be noted: ip.
For experiment [28], the system named is Mus musculus. Description: Anticonvulsant activity was determined in mouse (administered intraperitoneally) tested for 2.0 hours using electroshock test. To be noted: ip.

On to `CC(C)COc1cccc(N2CCCNCC2)n1`, for which the MAD in the experiment on Mus musculus [1] was determined as 100 mg/kg. Besides, the minimal effective dose with Mus musculus [2] turned out to be 30 mg/kg.

With `c1cc(OCC2CCCCC2)nc(N2CCNCC2)c1`, the MAD in the experiment with Mus musculus [1] turned out to be 30 mg/kg. For the same compound, in the experiment with Mus musculus [2], the minimal effective dose turned out to be 30 mg/kg.

In the experiment on Mus musculus [1], `CC(C)COc1cccc(N2CCN(C)CC2)n1` came in with an MAD of 30 mg/kg. Further, the minimal effective dose in the experiment on Mus musculus [2] amounted to 30 mg/kg.

Regarding `CC(C)COc1cccc(N2CCCCC2)n1`, the MAD in the experiment with Mus musculus [1] is >300 mg/kg. Moreover, in the experiment on Mus musculus [2], the minimal effective dose is > 300 mg/kg.

Regarding `Oc1cccc(N2CCNCC2)n1`, in the experiment with Mus musculus [1], the MAD was >300 mg/kg. In the experiment on Mus musculus [2], the minimal effective dose was > 300 mg/kg.

For `CC(C)Oc1cccc(N2CCNCC2)n1`, in the experiment on Mus musculus [1], the MAD was <10 mg/kg. The minimal effective dose in the experiment with Mus musculus [2] is 30 mg/kg.

`c1cc(OCC2CC2)nc(N2CCNCC2)c1` came in with an MAD in the experiment on Mus musculus [1] of 10 mg/kg. Besides, in the experiment with Mus musculus [2], the minimal effective dose came out at 10 mg/kg.

As for `CN(C)CCOc1cccc(N2CCNCC2)n1`, the MAD with Mus musculus [1] was >300 mg/kg. Further, the minimal effective dose with Mus musculus [2] was > 300 mg/kg.

In turn, `CC(C)COc1cccc(NCCN(C)C)n1` returned an MAD with Mus musculus [1] of 300 mg/kg. The minimal effective dose with Mus musculus [2] came to 100 mg/kg.

Compound `COc1cccc(N2CCNCC2)n1` yielded an MAD in the experiment with Mus musculus [1] of 10 mg/kg. Further, in the experiment with Mus musculus [2], the minimal effective dose worked out at 30 mg/kg.

The compound `c1cc(OC2CCCCC2)nc(N2CCNCC2)c1` had an MAD in the experiment with Mus musculus [1] of 10 mg/kg. For the same compound, the minimal effective dose in the experiment with Mus musculus [2] was determined as 30 mg/kg.

On to `CC(C)COc1cccc(N2CCNCC2)n1`, for which the ED10 with Mus musculus [3] came out at 5.4 mg/kg; with Mus musculus [5] it was 7.6 mg/kg; in the experiment on Mus musculus [6], 30 mg/kg; in the experiment with Rattus norvegicus [7], 340 mg/kg; in the experiment on Mus musculus [9] it was 6.6 mg/kg; in the experiment with Mus musculus [10] it was 5 mg/kg. Also, the ED10 is 10.7 mg/kg in the experiment on Mus musculus [13], 6.6 mg/kg in the experiment on Rattus norvegicus [15], 115 mg/kg in the experiment with Mus musculus [16] and 11 mg/kg with Mus musculus [17]. Further, the ED90 with Mus musculus [3] was 10.7 mg/kg; in the experiment on Mus musculus [5], 17 mg/kg; with Mus musculus [6] it was 69 mg/kg; in the experiment with Rattus norvegicus [7] it was 830 mg/kg; in the experiment on Mus musculus [9] it was 39 mg/kg; in the experiment on Mus musculus [10], 11.2 mg/kg. Besides, the ED90 in the experiment with Mus musculus [13] stood at 35 mg/kg; in the experiment with Rattus norvegicus [15], 195 mg/kg; in the experiment with Mus musculus [16] it was 164 mg/kg; in the experiment with Mus musculus [17], 114 mg/kg. In the experiment on Mus musculus [1], this compound registered an MAD of 30 mg/kg. Further, the ED50 came out at 46 mg/kg in the experiment with Mus musculus [4]; 11.1 mg/kg in the experiment with Mus musculus [5]; 525 mg/kg in the experiment with Rattus norvegicus [7]; 16 mg/kg in the experiment on Mus musculus [8]; 7.5 mg/kg with Mus musculus [11]; 19 mg/kg in the experiment on Mus musculus [12]. The ED50 stood at 7.5 mg/kg in the experiment on Mus musculus [14], 36 mg/kg in the experiment with Rattus norvegicus [15], 139 mg/kg in the experiment with Mus musculus [16] and 35 mg/kg in the experiment on Mus musculus [17]. The minimal effective dose in the experiment on Mus musculus [2] is 10 mg/kg.

As for `CCOc1cccc(N2CCNCC2)n1`, the MAD in the experiment with Mus musculus [1] worked out at 10 mg/kg. Besides, the minimal effective dose in the experiment with Mus musculus [2] is 30 mg/kg.

As for `CC(C)COc1cccc(N2CCOCC2)n1`, the MAD with Mus musculus [1] was determined as 300 mg/kg. For the same compound, the minimal effective dose in the experiment on Mus musculus [2] was 300 mg/kg.

`O=C1NC(=O)C(c2ccccc2)(c2ccccc2)N1` [PHENYTOIN]: the ED10 came to 3.7 mg/kg in the experiment on Mus musculus [18]; 8.4 mg/kg in the experiment with Mus musculus [20]; 60 mg/kg in the experiment on Mus musculus [21]; 4.9 mg/kg in the experiment with Mus musculus [22]; 50 mg/kg in the experiment with Mus musculus [24]; 33 mg/kg in the experiment on Mus musculus [27]. Further, the ED90 with Mus musculus [18] came to 15 mg/kg; with Mus musculus [21] it was 86 mg/kg; in the experiment on Mus musculus [22] it was 14 mg/kg; in the experiment with Mus musculus [24], 125 mg/kg; in the experiment on Mus musculus [25], 13 mg/kg; in the experiment with Mus musculus [27] it was 63 mg/kg. The ED50 with Mus musculus [19] is 9.8 mg/kg; in the experiment on Mus musculus [20], 10.4 mg/kg; in the experiment on Mus musculus [21], 71 mg/kg; with Rattus norvegicus [7] it was > 3000 mg/kg; with Mus musculus [23], 8.3 mg/kg; in the experiment with Mus musculus [24], 78 mg/kg. Further, the ED50 in the experiment on Mus musculus [26] was determined as 95 mg/kg; in the experiment with Rattus norvegicus [15], 33 mg/kg; with Mus musculus [27], 45 mg/kg; in the experiment with Mus musculus [28] it was 7.4 mg/kg.
